Laboratory results: ChEMBL document CHEMBL5465560, “Selectivity Literature for EUbOPEN Chemogenomic Library” (2024)

Key:
[1] = target: T1, Ephrin type-B receptor 4 (Homo sapiens) (UniProt P54760); assay: Selectivity interaction (KinomeScan (DiscoverX)) EUB0000595a EPHB4; conditions: at 10 µM
T1 sequence (whole entry): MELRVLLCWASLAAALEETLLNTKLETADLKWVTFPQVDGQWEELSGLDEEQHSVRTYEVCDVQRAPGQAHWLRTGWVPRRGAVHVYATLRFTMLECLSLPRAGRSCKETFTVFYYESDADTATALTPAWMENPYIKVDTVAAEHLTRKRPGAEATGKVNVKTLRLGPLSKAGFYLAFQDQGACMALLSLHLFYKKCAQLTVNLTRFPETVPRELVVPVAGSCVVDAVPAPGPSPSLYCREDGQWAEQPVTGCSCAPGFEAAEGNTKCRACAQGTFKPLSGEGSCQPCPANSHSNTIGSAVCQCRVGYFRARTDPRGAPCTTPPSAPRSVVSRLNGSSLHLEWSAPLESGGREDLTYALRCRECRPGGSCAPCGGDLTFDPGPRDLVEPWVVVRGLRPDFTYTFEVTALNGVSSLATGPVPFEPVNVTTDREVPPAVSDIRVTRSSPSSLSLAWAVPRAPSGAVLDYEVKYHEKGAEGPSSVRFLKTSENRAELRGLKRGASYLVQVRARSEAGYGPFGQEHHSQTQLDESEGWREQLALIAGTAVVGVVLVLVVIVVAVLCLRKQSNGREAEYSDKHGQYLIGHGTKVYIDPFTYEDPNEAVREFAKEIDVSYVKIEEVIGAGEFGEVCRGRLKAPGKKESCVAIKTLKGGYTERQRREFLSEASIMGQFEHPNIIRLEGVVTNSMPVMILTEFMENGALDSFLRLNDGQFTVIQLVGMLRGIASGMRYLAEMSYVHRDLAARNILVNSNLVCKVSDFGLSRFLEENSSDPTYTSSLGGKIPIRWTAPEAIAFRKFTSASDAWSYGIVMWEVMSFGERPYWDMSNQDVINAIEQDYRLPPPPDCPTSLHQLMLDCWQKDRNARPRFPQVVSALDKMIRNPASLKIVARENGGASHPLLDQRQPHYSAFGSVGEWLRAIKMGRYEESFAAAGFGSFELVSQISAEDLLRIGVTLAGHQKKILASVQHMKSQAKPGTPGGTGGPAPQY

[2] = target: T2, MAP/microtubule affinity-regulating kinase 4 (Homo sapiens) (UniProt Q96L34); assay: Selectivity interaction (Kinase panel (DSF assay)) EUB0001559a MARK4
T2 sequence (whole entry): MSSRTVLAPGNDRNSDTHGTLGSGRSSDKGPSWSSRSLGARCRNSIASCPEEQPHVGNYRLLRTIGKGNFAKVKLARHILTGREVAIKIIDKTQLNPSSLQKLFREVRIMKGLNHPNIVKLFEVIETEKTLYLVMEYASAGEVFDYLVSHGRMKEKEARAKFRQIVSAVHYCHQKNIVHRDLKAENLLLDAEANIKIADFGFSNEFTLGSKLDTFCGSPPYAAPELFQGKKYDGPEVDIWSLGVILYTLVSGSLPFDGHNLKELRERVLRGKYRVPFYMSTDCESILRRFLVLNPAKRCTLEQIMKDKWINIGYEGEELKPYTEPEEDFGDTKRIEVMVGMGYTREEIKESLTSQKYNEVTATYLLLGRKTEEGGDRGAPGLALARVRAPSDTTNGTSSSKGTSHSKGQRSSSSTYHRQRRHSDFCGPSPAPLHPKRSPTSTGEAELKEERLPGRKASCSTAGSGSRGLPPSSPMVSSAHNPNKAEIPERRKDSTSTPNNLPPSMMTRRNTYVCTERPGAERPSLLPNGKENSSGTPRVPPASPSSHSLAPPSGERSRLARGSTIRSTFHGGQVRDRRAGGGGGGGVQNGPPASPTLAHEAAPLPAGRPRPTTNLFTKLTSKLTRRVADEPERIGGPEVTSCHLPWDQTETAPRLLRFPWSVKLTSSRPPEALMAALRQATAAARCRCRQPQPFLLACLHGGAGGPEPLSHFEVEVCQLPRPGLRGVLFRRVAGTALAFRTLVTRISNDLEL

[3] = target: Serine/threonine-protein kinase VRK2 (Homo sapiens) (UniProt Q86Y07); assay: Selectivity interaction (KinomeScan (DiscoverX)) EUB0000045b VRK2
Sequence of Serine/threonine-protein kinase VRK2 (Homo sapiens) (Q86Y07 whole entry): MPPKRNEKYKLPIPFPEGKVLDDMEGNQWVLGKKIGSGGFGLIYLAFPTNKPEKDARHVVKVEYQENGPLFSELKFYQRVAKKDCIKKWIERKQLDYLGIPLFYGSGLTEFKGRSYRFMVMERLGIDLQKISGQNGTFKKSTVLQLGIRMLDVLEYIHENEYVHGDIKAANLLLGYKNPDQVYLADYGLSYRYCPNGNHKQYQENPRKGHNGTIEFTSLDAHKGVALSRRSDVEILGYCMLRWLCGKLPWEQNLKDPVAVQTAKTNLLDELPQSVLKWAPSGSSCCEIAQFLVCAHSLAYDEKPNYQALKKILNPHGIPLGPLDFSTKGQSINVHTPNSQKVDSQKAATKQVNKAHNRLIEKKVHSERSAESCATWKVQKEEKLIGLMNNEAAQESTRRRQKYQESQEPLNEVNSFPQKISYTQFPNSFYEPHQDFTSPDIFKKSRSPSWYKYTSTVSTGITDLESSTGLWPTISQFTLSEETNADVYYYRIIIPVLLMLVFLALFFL

[4] = target: RAC-alpha serine/threonine-protein kinase (Homo sapiens, UniProt P31749); assay: Selectivity interaction (KinomeScan (DiscoverX)) EUB0000666a AKT1; conditions: at 10 µM
[5] = target: Insulin receptor (Homo sapiens, UniProt P06213); assay: Selectivity interaction (KinomeScan (DiscoverX)) EUB0001049a INSR; conditions: at 1 µM
Sequence of Insulin receptor (P06213 28-758 limits assumed): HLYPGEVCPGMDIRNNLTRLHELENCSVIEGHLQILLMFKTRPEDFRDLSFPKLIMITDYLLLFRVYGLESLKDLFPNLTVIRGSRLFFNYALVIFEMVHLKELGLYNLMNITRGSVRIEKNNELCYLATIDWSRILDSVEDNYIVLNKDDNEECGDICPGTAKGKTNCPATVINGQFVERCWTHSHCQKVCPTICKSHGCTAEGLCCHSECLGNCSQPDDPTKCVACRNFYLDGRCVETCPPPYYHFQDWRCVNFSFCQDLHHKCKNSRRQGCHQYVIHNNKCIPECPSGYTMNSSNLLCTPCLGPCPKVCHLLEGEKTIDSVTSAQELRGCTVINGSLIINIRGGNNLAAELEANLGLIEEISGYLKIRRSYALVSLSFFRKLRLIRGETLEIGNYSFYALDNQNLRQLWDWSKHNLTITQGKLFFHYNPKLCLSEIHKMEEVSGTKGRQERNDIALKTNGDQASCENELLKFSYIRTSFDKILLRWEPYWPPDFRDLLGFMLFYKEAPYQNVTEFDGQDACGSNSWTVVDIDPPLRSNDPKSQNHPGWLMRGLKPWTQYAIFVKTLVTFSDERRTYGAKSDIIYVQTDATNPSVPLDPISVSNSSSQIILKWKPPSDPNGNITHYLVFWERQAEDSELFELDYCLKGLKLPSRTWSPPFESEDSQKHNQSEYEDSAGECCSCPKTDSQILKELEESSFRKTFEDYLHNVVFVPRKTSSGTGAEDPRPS
Sequence of Insulin receptor (P06213 763-1382 limits assumed): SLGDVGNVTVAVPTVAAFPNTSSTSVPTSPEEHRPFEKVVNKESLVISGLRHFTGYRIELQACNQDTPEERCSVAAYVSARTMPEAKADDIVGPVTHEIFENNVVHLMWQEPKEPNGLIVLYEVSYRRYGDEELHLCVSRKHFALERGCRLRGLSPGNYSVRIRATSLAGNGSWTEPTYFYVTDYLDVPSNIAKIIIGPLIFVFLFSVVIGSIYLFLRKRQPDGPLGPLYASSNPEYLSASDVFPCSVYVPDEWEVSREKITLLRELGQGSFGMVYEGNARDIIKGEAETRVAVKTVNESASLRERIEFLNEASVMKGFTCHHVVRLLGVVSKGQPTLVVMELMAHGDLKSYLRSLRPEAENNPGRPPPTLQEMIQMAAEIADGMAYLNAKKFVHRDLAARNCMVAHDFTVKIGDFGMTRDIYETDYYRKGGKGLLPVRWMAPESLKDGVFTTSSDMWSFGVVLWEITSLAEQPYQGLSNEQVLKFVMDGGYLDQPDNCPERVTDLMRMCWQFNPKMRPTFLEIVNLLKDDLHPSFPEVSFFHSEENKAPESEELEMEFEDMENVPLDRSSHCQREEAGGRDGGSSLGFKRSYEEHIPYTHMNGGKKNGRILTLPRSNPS

[6] = target: Serine/threonine-protein kinase WNK2 (Homo sapiens) (UniProt Q9Y3S1); assay: Selectivity interaction (ProQinase) EUB0000171b WNK2
Sequence of Serine/threonine-protein kinase WNK2 (Homo sapiens) (Q9Y3S1 whole entry): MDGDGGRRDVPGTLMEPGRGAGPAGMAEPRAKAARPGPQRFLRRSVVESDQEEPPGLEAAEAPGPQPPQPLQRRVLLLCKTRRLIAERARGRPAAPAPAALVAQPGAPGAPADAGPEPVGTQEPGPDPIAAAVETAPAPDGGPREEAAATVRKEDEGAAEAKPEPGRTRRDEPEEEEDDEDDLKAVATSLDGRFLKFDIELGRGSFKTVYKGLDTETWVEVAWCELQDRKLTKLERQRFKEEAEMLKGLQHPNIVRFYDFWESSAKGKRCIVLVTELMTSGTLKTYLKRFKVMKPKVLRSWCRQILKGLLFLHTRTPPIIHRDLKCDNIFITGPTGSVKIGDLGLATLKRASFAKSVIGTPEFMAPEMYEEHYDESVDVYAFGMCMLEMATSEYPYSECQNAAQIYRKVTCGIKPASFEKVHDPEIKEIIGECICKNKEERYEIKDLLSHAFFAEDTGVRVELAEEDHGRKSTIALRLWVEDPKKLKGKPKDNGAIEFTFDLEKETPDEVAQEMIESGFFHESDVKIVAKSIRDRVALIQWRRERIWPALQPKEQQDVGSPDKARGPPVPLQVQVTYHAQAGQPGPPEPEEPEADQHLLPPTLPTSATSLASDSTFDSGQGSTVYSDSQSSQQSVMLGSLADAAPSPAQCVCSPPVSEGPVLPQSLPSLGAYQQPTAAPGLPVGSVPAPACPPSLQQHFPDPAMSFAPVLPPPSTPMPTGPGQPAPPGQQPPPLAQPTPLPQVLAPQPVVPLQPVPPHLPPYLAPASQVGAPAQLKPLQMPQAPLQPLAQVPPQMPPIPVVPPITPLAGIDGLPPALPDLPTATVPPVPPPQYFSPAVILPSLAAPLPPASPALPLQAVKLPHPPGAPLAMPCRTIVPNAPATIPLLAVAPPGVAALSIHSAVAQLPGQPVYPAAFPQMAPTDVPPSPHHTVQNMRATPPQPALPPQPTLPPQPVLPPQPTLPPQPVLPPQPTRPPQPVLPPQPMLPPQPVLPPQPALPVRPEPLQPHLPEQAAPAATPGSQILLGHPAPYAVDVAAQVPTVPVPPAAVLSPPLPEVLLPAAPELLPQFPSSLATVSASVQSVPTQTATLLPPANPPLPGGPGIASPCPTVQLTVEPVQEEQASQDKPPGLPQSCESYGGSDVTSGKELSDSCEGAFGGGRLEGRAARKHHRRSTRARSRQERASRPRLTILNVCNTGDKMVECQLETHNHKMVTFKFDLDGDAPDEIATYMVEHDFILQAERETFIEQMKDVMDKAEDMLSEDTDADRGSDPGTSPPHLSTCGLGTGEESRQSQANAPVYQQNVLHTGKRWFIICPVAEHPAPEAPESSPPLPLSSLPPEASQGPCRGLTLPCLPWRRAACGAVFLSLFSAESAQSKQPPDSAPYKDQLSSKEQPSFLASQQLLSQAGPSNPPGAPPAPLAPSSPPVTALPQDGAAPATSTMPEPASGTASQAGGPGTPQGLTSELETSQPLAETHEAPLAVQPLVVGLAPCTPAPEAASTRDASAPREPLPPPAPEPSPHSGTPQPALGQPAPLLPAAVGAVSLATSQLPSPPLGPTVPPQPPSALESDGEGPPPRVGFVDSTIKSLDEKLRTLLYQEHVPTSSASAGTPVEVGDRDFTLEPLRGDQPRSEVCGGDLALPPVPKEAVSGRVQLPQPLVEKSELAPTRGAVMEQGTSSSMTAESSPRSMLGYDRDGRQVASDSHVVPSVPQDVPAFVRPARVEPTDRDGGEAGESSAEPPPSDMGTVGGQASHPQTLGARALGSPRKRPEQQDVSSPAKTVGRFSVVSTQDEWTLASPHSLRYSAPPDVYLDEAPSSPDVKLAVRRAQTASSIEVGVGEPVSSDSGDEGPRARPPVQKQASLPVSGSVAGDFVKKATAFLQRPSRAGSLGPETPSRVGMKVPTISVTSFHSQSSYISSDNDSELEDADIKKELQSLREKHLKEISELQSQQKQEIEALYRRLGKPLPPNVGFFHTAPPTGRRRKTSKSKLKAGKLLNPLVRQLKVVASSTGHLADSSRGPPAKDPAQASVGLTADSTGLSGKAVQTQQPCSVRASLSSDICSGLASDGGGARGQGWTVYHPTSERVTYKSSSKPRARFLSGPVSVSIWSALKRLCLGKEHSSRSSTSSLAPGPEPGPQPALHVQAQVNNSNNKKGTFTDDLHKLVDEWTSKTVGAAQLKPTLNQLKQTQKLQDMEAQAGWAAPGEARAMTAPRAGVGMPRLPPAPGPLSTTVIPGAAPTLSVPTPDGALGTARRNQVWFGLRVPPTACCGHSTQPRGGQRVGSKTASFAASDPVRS

[7] = target: Dual specificity tyrosine-phosphorylation-regulated kinase 1A (Homo sapiens, UniProt Q13627); assay: Selectivity interaction (Kinase panel (literature)) EUB0001199aCl DYRK1A; conditions: at 1 µM
[8] = target: Ribosomal protein S6 kinase alpha-1 (Homo sapiens, UniProt Q15418); assay: Selectivity interaction (Kinase panel (DSF assay)) EUB0001558a RPS6KA1
[9] = target: RAC-gamma serine/threonine-protein kinase (Homo sapiens, UniProt Q9Y243); assay: Selectivity interaction (KinomeScan (DiscoverX)) EUB0000618a AKT3; conditions: at 10 µM
[10] = target: T3, Protein kinase C iota type (Homo sapiens) (UniProt P41743); assay: Selectivity interaction (ActivX KiNativ screen (kinase selectivity in THP-1 cell lysates)) EUB0000639a PRKCI; format: subcellular; conditions: lysate, at 1 µM
T3 sequence (whole entry): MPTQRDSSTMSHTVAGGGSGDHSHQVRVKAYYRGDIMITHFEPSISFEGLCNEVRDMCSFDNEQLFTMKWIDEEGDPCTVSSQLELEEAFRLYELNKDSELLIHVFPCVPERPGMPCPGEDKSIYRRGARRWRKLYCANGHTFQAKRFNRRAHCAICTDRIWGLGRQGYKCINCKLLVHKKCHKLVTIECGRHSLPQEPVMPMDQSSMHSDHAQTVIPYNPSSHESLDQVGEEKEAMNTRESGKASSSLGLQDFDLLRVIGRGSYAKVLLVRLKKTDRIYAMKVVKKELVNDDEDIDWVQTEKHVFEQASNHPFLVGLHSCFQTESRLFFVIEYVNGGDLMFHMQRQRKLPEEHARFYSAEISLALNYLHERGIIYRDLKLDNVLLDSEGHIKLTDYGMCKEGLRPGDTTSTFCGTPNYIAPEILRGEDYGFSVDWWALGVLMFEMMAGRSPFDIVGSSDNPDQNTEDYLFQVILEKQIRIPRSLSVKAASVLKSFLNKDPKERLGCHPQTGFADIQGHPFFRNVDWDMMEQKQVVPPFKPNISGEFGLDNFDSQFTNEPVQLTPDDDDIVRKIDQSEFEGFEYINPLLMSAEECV

[11] = target: Activin receptor type-2A (Homo sapiens) (UniProt P27037); assay: Selectivity interaction (KinomeScan (DiscoverX)) EUB0000092b ACVR2A; conditions: at 10 µM
Sequence of Activin receptor type-2A (Homo sapiens) (P27037 whole entry): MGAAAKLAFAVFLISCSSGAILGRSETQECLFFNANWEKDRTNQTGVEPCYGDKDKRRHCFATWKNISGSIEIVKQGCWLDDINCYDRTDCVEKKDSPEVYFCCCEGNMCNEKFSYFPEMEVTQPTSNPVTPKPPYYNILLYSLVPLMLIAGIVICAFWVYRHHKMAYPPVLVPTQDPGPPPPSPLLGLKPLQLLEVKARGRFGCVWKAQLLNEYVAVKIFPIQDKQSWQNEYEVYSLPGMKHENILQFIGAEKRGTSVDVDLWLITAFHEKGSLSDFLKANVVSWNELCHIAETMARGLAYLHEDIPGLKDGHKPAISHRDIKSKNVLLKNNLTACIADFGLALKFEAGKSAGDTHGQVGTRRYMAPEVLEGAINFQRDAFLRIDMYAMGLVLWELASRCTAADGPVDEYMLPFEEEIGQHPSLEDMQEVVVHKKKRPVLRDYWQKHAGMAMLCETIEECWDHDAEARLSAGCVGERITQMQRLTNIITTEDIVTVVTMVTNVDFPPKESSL

## COCC(=O)NC/C=C/c1ccc2ncnc(Nc3ccc(Oc4ccc(C)nc4)c(C)c3)c2c1 [CP-724714]
[1]
  % of control: 95%

## CN(C(=O)c1cnn2cccnc12)c1cc2c(cc1N1CCOCC1)C(=O)N(C[C@@H](F)C(C)(C)O)C2
[2]
  dTM: 0.9 K

## C=CC(=O)Nc1cc(-n2c(=O)ccc3cnc4ccc(-c5ccc(NS(C)(=O)=O)cc5)cc4c32)ccc1C
[3]; at 1 µM
  % of control: 100%
[3]; at 10 µM
  % of control: 86%

## O=C(NOC[C@H](O)CO)c1ccc(F)c(F)c1Nc1ccc(I)cc1F
[4]
  % of control: 81%

## COc1cc(Nc2nc(C)cc(-c3cnn4nc(OC)ccc34)n2)cc(C(F)(F)F)c1
[5]
  % of control: 71%

## C=CC(=O)Nc1cccc(C(=O)Nc2ccc(Nc3cc(-c4[nH]c(SC)nc4C)ccn3)cc2)c1
[6]; at 1 µM
  % of control: 98%
[6]; at 5 µM
  % of control: 78%

## CN1Cc2nccc(-c3cn(C)nc3-c3ccc(F)cc3)c2C1=O
[7]
  % of inhibition: -3%

## CC(C)(O)[C@H](F)CN1Cc2cc(NC(=O)c3cnn4cccnc34)c(N3CCOCC3)cc2C1=O
[8]
  dTM: -0.2 K

## O[C@H]1CC[C@H](Nc2ncc3nc(Nc4c(F)cc(F)cc4F)n([C@H]4CCOC4)c3n2)CC1
[9]
  % of control: 100%

## CC[C@@H]1[C@H](F)C(=O)N[C@@H]1COc1nccc2cc(C(N)=O)c(OC)cc12 [ZIMLOVISERTIB]
[10]
  % of inhibition: 2.2%

## CCC(=O)N1CCN(c2ccc(-n3c(=O)ccc4cnc5ccc(-c6cnc7ccccc7c6)cc5c43)cc2C(F)(F)F)CC1
[11]
  % of control: 47%
